According to article PMC7265341, “Quantifying CDK inhibitor selectivity in live cells” (Nature Communications, 2020):
Several values for one entry are separate records, joined by “and”; a condition that tells them apart may be missing. Identical values can stand only once. Like-named read-outs stand apart in the source and are kept apart here.

Legend:
CDK12/Cyclin K = CDK12/Cyclin K (Homo sapiens, UniProt Q9NYV4); test: NanoBRET live-cell target engagement, CDK12-NanoLuc/Cyclin K in HEK-293; format: binding
CDK13/Cyclin K = CDK13/Cyclin K (Homo sapiens, UniProt Q14004); test: NanoBRET live-cell target engagement, CDK13-NanoLuc/Cyclin K in HEK-293; format: binding
all 21 human CDKs = test: Live-cell selectivity profile across all 21 CDK/cyclin complexes in HEK-293; format: binding; settings: remaining CDK family, live HEK-293; read-out: Collateral CDK (potency)
CDK4/Cyclin D1 = CDK4/Cyclin D1 (Homo sapiens, UniProt P11802); test: Target engagement analysis in MCF7 cells, NLuc-CDK4/Cyclin D1; format: binding; settings: Panel D;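 note: MCF7 cells transiently transfected to express NLuc-tagged CDK4 together with Cyclin D1, with the assay run in Opti-MEM medium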
CDK6/Cyclin D1 = CDK6/Cyclin D1 (Homo sapiens, UniProt Q00534); test: Target engagement analysis in MCF7 cells, NLuc-CDK6/Cyclin D1; format: binding; settings: Panel C;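 note: MCF7 cells transiently co-transfected with an NLuc-CDK6 fusion plasmid plus a Cyclin D1 expression plasmid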
phospho-Rb (Ser 807/811) = test: Endogenous phospho-Rb (Ser 807/811) Lumit immunoassay in MCF7 cells; format: cell-based, human; settings: for Normalized pRB (%): Panel E;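 for all read-outs here: Serum-starved cells exposed to compounds for 24 h with 25 ng/mL hEGF, then lysed, phospho-Rb detected by split-luciferase antibody pair luminescence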
[1] = CDK13/K, average, read-out: Inhibition at 10µM (%)
[2] = CDK13/K, experiment 1, read-out: Inhibition at 10µM (%)
[3] = CDK13/K, experiment 2, read-out: Inhibition at 10µM (%)
[4] = 10µM, average of experiments, read-out: CDK12/K Inhibition at 10µM (%)
[5] = 10µM, independent experiment 1, read-out: CDK12/K Inhibition at 10µM (%)
[6] = 10µM, independent experiment 2, read-out: CDK12/K Inhibition at 10µM (%)
[7] = 10µM, average of experiments, read-out: CDK13/K Inhibition at 10µM (%)
[8] = 10µM, independent experiment 1, read-out: CDK13/K Inhibition at 10µM (%)
[9] = 10µM, independent experiment 2, read-out: CDK13/K Inhibition at 10µM (%)
[10] = LOG10([Compound]) (LOG10(µM)) 0.0457575
[11] = LOG10([Compound]) (LOG10(µM)) 0.522879
[12] = LOG10([Compound]) (LOG10(µM)) 1
[13] = LOG10([Compound]) (LOG10(µM)) -0.431364
[14] = LOG10([Compound]) (LOG10(µM)) -0.908485
[15] = LOG10([Compound]) (LOG10(µM)) -1.38561
[16] = LOG10([Compound]) (LOG10(µM)) -1.86273
[17] = LOG10([Compound]) (LOG10(µM)) -2.33985
[18] = LOG10([Compound]) (LOG10(µM)) -2.81697
[19] = LOG10([Compound]) (LOG10(µM)) -3.29409

CDK12/Cyclin K, sequence (Q9NYV4 1-1481 isoform Q9NYV4-2): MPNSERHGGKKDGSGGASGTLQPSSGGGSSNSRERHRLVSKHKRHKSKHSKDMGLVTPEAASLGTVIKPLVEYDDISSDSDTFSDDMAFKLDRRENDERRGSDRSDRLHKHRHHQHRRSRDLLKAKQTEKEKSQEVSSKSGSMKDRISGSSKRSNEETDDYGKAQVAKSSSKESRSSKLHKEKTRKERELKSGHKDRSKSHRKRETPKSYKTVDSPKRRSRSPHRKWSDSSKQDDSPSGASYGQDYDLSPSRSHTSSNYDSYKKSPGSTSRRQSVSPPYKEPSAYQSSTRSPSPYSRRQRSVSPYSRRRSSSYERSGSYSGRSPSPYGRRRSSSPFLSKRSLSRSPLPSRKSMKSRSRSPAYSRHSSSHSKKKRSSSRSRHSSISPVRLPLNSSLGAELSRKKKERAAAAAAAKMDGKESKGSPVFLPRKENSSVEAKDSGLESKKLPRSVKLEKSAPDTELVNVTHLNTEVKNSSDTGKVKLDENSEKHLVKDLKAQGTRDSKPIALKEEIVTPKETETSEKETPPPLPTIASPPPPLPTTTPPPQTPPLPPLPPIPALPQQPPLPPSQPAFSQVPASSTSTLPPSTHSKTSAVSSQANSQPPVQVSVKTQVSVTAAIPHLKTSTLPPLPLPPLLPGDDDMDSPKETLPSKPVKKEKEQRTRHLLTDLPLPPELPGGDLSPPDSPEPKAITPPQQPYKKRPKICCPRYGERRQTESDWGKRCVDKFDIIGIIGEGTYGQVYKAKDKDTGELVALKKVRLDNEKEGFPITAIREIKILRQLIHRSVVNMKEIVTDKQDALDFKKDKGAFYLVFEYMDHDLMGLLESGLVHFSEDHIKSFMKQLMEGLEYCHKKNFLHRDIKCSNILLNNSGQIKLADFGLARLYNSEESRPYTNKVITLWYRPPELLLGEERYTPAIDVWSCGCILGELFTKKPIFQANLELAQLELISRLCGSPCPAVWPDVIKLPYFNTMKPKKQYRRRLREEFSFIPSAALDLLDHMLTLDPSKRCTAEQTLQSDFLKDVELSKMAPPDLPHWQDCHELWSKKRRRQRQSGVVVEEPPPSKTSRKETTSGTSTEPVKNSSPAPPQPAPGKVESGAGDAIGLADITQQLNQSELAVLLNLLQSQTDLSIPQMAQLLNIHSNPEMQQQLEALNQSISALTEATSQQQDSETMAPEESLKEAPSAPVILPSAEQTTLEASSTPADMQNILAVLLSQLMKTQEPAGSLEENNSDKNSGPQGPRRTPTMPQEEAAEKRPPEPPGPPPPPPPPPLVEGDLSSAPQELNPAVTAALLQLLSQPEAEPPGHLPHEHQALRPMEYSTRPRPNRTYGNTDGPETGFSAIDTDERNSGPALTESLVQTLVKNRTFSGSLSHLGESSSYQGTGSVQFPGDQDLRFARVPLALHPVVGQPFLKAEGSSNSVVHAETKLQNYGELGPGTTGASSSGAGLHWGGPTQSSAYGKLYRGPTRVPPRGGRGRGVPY
CDK12/Cyclin K, sequence (O75909 whole entry partner): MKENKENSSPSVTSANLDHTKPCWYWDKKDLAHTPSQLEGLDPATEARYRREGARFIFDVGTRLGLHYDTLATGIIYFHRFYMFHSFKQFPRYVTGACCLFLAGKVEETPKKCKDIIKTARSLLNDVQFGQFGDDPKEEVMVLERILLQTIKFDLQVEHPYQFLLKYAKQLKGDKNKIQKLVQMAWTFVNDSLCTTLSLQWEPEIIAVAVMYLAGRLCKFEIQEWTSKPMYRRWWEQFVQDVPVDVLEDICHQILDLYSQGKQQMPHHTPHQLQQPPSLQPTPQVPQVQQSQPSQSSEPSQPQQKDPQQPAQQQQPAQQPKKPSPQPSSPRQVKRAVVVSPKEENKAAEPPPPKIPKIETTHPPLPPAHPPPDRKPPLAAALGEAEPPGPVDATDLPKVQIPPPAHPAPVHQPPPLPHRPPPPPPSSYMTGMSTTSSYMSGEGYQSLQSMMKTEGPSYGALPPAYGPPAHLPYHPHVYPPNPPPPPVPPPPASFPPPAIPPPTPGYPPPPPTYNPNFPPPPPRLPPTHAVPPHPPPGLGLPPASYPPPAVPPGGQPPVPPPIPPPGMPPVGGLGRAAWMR
CDK6/Cyclin D1, sequence (Q00534 whole entry, the tested form may be a part): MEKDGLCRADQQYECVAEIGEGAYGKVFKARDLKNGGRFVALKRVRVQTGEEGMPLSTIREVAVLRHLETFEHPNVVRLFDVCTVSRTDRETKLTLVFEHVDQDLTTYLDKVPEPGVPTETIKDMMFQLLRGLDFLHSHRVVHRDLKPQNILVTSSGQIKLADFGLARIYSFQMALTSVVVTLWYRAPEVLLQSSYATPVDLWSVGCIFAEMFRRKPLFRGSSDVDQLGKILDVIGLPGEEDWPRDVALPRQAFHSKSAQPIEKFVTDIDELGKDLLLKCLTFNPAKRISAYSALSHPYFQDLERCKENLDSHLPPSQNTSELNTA
CDK6/Cyclin D1, sequence (P24385 whole entry partner, the tested form may be a part): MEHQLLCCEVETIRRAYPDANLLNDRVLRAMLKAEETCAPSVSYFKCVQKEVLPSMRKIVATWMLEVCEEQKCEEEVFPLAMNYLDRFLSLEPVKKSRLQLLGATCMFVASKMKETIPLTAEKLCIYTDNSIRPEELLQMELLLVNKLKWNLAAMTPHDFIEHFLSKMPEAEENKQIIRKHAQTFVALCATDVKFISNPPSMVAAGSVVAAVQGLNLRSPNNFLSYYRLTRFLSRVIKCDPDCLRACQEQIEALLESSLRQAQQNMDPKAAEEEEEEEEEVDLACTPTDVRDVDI
CDK13/Cyclin K, sequence (O75909 whole entry): as the sequence (O75909 whole entry partner) above
CDK13/Cyclin K, sequence (Q14004 other isoform, or with tags, fused parts or gaps): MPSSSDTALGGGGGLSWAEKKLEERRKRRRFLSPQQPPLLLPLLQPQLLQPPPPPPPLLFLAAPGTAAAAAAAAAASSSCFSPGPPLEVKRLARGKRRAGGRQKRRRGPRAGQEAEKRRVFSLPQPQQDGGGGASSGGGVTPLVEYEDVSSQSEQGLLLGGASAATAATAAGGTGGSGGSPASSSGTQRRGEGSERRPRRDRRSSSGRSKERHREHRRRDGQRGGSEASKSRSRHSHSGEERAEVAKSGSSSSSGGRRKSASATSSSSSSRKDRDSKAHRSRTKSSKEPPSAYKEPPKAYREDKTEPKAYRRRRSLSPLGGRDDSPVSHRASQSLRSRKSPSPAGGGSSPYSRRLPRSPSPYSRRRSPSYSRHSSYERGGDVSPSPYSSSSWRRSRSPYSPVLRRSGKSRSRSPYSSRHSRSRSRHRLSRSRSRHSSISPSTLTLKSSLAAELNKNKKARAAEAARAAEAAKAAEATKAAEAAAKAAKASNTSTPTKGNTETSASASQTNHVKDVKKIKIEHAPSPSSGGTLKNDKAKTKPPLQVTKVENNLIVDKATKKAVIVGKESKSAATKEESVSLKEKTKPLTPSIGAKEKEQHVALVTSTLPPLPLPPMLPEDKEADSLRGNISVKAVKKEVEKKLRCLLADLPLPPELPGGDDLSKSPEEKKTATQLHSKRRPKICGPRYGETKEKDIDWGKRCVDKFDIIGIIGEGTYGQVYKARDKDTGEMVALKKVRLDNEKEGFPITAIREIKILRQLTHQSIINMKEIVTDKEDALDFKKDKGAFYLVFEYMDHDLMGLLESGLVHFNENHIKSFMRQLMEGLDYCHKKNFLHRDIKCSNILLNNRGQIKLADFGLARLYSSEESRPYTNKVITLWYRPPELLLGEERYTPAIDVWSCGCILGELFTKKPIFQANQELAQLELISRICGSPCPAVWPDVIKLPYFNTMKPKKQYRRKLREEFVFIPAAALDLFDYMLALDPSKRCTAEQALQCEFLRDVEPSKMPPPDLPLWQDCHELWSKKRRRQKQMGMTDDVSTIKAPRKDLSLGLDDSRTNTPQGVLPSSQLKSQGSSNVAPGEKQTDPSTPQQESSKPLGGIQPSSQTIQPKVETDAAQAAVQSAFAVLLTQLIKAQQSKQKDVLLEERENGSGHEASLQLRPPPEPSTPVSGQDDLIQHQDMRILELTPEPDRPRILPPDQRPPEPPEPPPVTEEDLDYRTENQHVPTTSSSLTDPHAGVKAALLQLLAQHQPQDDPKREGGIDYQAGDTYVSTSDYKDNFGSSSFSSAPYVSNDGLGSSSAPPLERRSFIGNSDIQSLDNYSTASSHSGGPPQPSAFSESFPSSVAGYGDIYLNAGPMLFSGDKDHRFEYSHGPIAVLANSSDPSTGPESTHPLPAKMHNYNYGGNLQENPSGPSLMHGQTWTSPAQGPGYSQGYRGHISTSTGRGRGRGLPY
CDK4/Cyclin D1, sequence (P11802 whole entry, the tested form may be a part): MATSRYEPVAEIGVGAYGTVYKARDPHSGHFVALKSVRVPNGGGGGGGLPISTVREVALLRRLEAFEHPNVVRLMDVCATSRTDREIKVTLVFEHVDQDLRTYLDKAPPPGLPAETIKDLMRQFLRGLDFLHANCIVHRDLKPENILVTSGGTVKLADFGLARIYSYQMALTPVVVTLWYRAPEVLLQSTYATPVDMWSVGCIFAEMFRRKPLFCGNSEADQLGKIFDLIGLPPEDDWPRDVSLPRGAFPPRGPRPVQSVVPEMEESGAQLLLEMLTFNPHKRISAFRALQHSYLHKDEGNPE
CDK4/Cyclin D1, sequence (P24385 whole entry partner, the tested form may be a part): as the sequence (P24385 whole entry partner, the tested form may be a part) above

For `COC1CN(C(=O)c2ccc3c(N)ncc(-c4ccc(-c5cnn(C)c5)cc4)c3n2)C1` [CCT251545 analog], the inhibition at 10 µM (CDK12/Cyclin K; read-out: Inhibition at 10µM (%), CDK12/K, average) was 1.9%, the inhibition at 10 µM (CDK12/Cyclin K; read-out: Inhibition at 10µM (%), CDK12/K, experiment 1) was 5.9% and the inhibition at 10 µM (CDK12/Cyclin K; read-out: Inhibition at 10µM (%), CDK12/K, experiment 2) was -2.2%. The inhibition at 10 µM (CDK13/Cyclin K; [1]) was 6.6%, the inhibition at 10 µM (CDK13/Cyclin K; [2]) was 6.4% and the inhibition at 10 µM (CDK13/Cyclin K; [3]) was 6.7%. For the same molecule, the IC50 (all 21 human CDKs) was > 1000 nM.
Molecule `Cn1cc(-c2ccc(-c3cncc(Cl)c3N3CCC4(CCNC4=O)CC3)cc2)cn1` [CCT251545] has an inhibition at 10 µM (CDK12/Cyclin K; CDK12/K, average, read-out: Inhibition at 10µM (%)) of -2.2%, an inhibition at 10 µM (CDK12/Cyclin K; CDK12/K, experiment 1, read-out: Inhibition at 10µM (%)) of 2.5% and an inhibition at 10 µM (CDK12/Cyclin K; CDK12/K, experiment 2, read-out: Inhibition at 10µM (%)) of -6.8%. It also gave an inhibition at 10 µM (CDK13/Cyclin K; [1]) of 7.2%, an inhibition at 10 µM (CDK13/Cyclin K; [2]) of 7.3% and an inhibition at 10 µM (CDK13/Cyclin K; [3]) of 7.1%. The IC50 (all 21 human CDKs) was > 1000 nM.
With `CN(C)C/C=C/C(=O)Nc1ccc(C(=O)N2CCC[C@@H](Nc3ncc(Cl)c(-c4c[nH]c5ccccc45)n3)C2)cc1` [THZ531] the inhibition at 10 µM (CDK12/Cyclin K; [4]) was 65.1%, the inhibition at 10 µM (CDK12/Cyclin K; [5]) was 75.9% and the inhibition at 10 µM (CDK12/Cyclin K; [6]) was 54.3%. For the same molecule, the IC50 (CDK12/Cyclin K; independent experiment 1, read-out: CDK12/K IC50) was 540 nM, the IC50 (CDK12/Cyclin K; independent experiment 2, read-out: CDK12/K IC50) was 1000 nM and the IC50 (CDK12/Cyclin K; live HEK-293, 2 h, mean ± S.E.M. (n=3) or mean (n=2), read-out: IC50 for CDK/cyclin complexes, CDK12/K) was 770 nM. For the same molecule, the IC50 (CDK12/Cyclin K; live HEK-293, read-out: CDK12 engagement potency) was < 1000 nM, the “CDK12 occupancy at 10 µM” value (CDK12/Cyclin K; primary screen, live HEK-293) was “occupied” and the receptor occupancy at 10 µM (CDK12/Cyclin K; read-out: CDK12 occupancy at 10 µM) was ~50%. It also gave an inhibition at 10 µM (CDK13/Cyclin K; [7]) of 53.1%, an inhibition at 10 µM (CDK13/Cyclin K; [8]) of 48.6% and an inhibition at 10 µM (CDK13/Cyclin K; [9]) of 57.6%. For the same molecule, the IC50 (CDK13/Cyclin K; live HEK-293, response to reviewers, read-out: CDK13 IC50 (follow up)) was ~2000 nM, the “CDK13 occupancy at 10 µM” value (CDK13/Cyclin K; primary screen, live HEK-293) was “occupied” and the receptor occupancy at 10 µM (CDK13/Cyclin K; primary screen, live HEK-293) was ~50%. The IC50 (all 21 human CDKs) was > 1000 nM.
`CN1CCN(c2ccc(Nc3ncc4cc5n(c4n3)C3(CCCCC3)CNC5=O)nc2)CC1` [Trilaciclib] was tested, and the inhibition at 10 µM (CDK12/Cyclin K; [4]) was -2.6%, the inhibition at 10 µM (CDK12/Cyclin K; [5]) was -5.3% and the inhibition at 10 µM (CDK12/Cyclin K; [6]) was 0.155%. The inhibition at 10 µM (CDK13/Cyclin K; [7]) was 3.3%, the inhibition at 10 µM (CDK13/Cyclin K; [8]) was 1.9% and the inhibition at 10 µM (CDK13/Cyclin K; [9]) was 4.7%. For the same molecule, the “CDK4 Target Occupancy” value (CDK4/Cyclin D1; [10]) was 104 and 103.238 and 105.143, the “CDK4 Target Occupancy” value (CDK4/Cyclin D1; [11]) was 109.905 and 105.81 and 108 and 106.476 and the “CDK4 Target Occupancy” value (CDK4/Cyclin D1; [12]) was 104.19 and 102.19 and 103.238 and 105.143. For the same molecule, the “CDK4 Target Occupancy” value (CDK4/Cyclin D1; [13]) was 107.333 and 104.381 and 108.571 and 104.286, the “CDK4 Target Occupancy” value (CDK4/Cyclin D1; [14]) was 102.286 and 102.857 and 103.333 and 103.048 and the “CDK4 Target Occupancy” value (CDK4/Cyclin D1; [15]) was 103.238 and 101.524 and 101.714 and 103.81. For the same molecule, the “CDK4 Target Occupancy” value (CDK4/Cyclin D1; [16]) was 99.1429 and 96.1905 and 95.9048, the “CDK4 Target Occupancy” value (CDK4/Cyclin D1; [17]) was 89.0476 and 92.4762 and 89.4286 and the “CDK4 Target Occupancy” value (CDK4/Cyclin D1; [18]) was 77.4286 and 74.7619 and 73.7143 and 67.1429. For the same molecule, the “CDK4 Target Occupancy” value (CDK4/Cyclin D1; [19]) was 58.1905 and 60.6667 and 56.5714 and 57.0476, the “CDK4 Target Occupancy” value (CDK4/Cyclin D1; LOG10([Compound]) (LOG10(µM)) -3.77121) was 32.381 and 31.4286 and 33.3333 and the “CDK6 Target Occupancy” value (CDK6/Cyclin D1; [10]) was 101.609 and 102.011 and 101.117 and 100.76. The “CDK6 Target Occupancy” value (CDK6/Cyclin D1; [11]) was 102.28 and 102.861 and 100.67 and 102.905, the “CDK6 Target Occupancy” value (CDK6/Cyclin D1; [12]) was 101.52 and 101.564 and 101.073 and 101.654 and the “CDK6 Target Occupancy” value (CDK6/Cyclin D1; [13]) was 101.654 and 100.223 and 101.833 and 101.341. The “CDK6 Target Occupancy” value (CDK6/Cyclin D1; [14]) was 100.715 and 100.045 and 100 and 101.028, the “CDK6 Target Occupancy” value (CDK6/Cyclin D1; [15]) was 97.5863 and 94.6363 and 95.9772 and 97.2287 and the “CDK6 Target Occupancy” value (CDK6/Cyclin D1; [16]) was 90.9264 and 90.3453 and 90.1218 and 88.5574. For the same molecule, the “CDK6 Target Occupancy” value (CDK6/Cyclin D1; [17]) was 74.567 and 73.0473 and 71.5722 and 77.4723, the “CDK6 Target Occupancy” value (CDK6/Cyclin D1; [18]) was 30.7185 and 35.6353 and 35.9482 and 37.7808 and the IC50 (phospho-Rb (Ser 807/811); Homo sapiens, MCF7 cells, Panel F pIC50 correlations) was 20.9 nM. For the same molecule, the “Normalized pRB (%)” value (phospho-Rb (Ser 807/811); [10]) was 9.9% and 10.9% and 11.1%, the “Normalized pRB (%)” value (phospho-Rb (Ser 807/811); [11]) was 8.7% and 9.3% and 9.4% and the “Normalized pRB (%)” value (phospho-Rb (Ser 807/811); [12]) was 9.1% and 9.9% and 10.7%. For the same molecule, the “Normalized pRB (%)” value (phospho-Rb (Ser 807/811); [13]) was 11.9% and 12.2% and 12.8%, the “Normalized pRB (%)” value (phospho-Rb (Ser 807/811); [14]) was 21.1% and 21.7% and 21.4% and the “Normalized pRB (%)” value (phospho-Rb (Ser 807/811); [15]) was 39.5% and 43.3% and 40.8%. The “Normalized pRB (%)” value (phospho-Rb (Ser 807/811); [16]) was 65.2% and 69.5% and 71.9%, the “Normalized pRB (%)” value (phospho-Rb (Ser 807/811); [17]) was 95% and 98.6% and 94.8% and the “Normalized pRB (%)” value (phospho-Rb (Ser 807/811); [18]) was 103% and 105.2% and 103.9%. The “Normalized pRB (%)” value (phospho-Rb (Ser 807/811); [19]) was 100.3% and 111% and 109%.
